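Compound exposure: 48 hours, 5 concentrations, 96-well plates. Definition used: TGI = concentration required for complete inhibition of growth.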
What was measured:
Assay in all cases: NCI tumour cell line growth inhibition, 48 h
[1] = test system: EKVX NSCLC
[2] = test system: HS 578T breast
[3] = test system: KM12 colon
[4] = test system: MALME-3M melanoma
[5] = test system: MDA-MB-231 breast
[6] = test system: MOLT-4 leukemia
[7] = test system: NCI-H23 lung
[8] = test system: OVCAR-8 ovarian
[9] = test system: RPMI-8226 leukemia
[10] = test system: SK-MEL-2 melanoma
[11] = test system: TK-10 renal
[12] = test system: U251 CNS
[13] = test system: UACC-257 melanoma
[14] = test system: HOP-92 NSCLC
[15] = test system: NCI-H522 lung

| SMILES | TGI [1] [µM] | TGI [2] [µM] | TGI [3] [µM] | TGI [4] [µM] | TGI [5] [µM] | TGI [6] [µM] | TGI [7] [µM] | TGI [8] [µM] | TGI [9] [µM] | TGI [10] [µM] | TGI [11] [µM] | TGI [12] [µM] | TGI [13] [µM] | TGI [14] [µM] | TGI [15] [µM] |
| --- | --- | --- | --- | --- | --- | --- | --- | --- | --- | --- | --- | --- | --- | --- | --- |
| Cc1c2c(n(CCN(C)C)c1C)NN=C(C#N)S2(=O)=O | > 100 | > 100 | > 100 | > 100 | > 100 | > 100 | > 100 | > 100 | > 100 | > 100 | > 100 | > 100 | > 100 | – | – |
| CN1CCC23c4c5ccc(O)c4OC2c2[nH]c4ccccc4c2CC3(O)C1C5 (centres undefined) | > 100 | 70.9 | > 100 | 36.8 | 86.5 | 93.6 | > 100 | > 100 | 55 | 39.9 | 43.5 | 52.9 | 36.8 | 40.5 | > 100 |
| CN(CCCNC(=O)c1nn(-c2ccc(Cl)cc2Cl)c2c1ccc1ccccc12)CCCNC(=O)c1nn(-c2ccc(Cl)cc2Cl)c2c1ccc1ccccc12 | 3.29 | 3.18 | 3.26 | 3.58 | 3.23 | 3.63 | 3.26 | – | 4.36 | 3.09 | 3.41 | 3.07 | 3.26 | 3.52 | 2.83 |
| COc1c(O)c2c(=O)cc(OC)c3c4c(OC)cc(=O)c5c(O)c(OC)c6c(c(c1C(C(C)=O)C6C(C)O)c23)c54 (centres undefined) | 4.55 | 1.81 | 1.07 | 2.57 | 1.88 | 0.443 | 1.33 | 0.71 | 1.28 | – | 3.65 | 0.603 | 1.39 | 1.4 | 0.634 |
| O=[N+]([O-])/C(C(Cl)=C(Cl)Cl)=C(/Sc1ccccc1)N1CCCCC1 | > 100 | > 100 | > 100 | > 100 | > 100 | > 100 | > 100 | > 100 | > 100 | > 100 | > 100 | > 100 | 99.1 | > 100 | > 100 |
| COc1cccc(C2C3=C(COC3=O)Oc3cc4c(cc32)OCO4)c1 (centres undefined) | > 58 | > 100 | 6.43 | > 100 | > 43.3 | 14.1 | 24.9 | 20 | 3.03 | > 100 | 93.6 | > 100 | > 100 | – | 0.0596 |
| N#CC(Cc1ccccc1Br)N(CCC1=CCCCC1)C(c1ccccc1)c1ccccc1 (centres undefined) | > 100 | > 100 | > 100 | > 100 | > 100 | > 100 | > 100 | > 100 | 83.5 | > 100 | > 100 | > 100 | > 100 | > 100 | 87 |
| COc1cc(/C=C/c2cc(/C=C/c3ccc(O)c(OC)c3)oc(=O)c2)ccc1O | > 36.2 | > 85.3 | 18 | 10.7 | > 96.2 | > 26.2 | > 24.7 | > 100 | > 20.5 | > 65.9 | > 30 | > 51.8 | > 29.6 | 32.6 | > 23.9 |
| COc1cc2c(cc1OC)C(N)CC2=O (centres undefined) | > 100 | > 100 | > 100 | – | > 100 | > 100 | > 100 | > 100 | > 100 | > 100 | > 100 | > 100 | > 100 | > 100 | > 100 |
| COc1cc(O)c2c(=O)cc(C3(O)C=CC(=O)C=C3)oc2c1 | 5.79 | 8.38 | 0.447 | – | 0.789 | > 100 | 2.46 | 0.586 | – | 2.66 | 0.376 | 0.0808 | 1.05 | 0.493 | 0.113 |
| CCOC(=O)/C=C(/C(=O)OCC)n1ccc(=O)n(/C(=C/C(=O)OCC)C(=O)OCC)c1=O | 36 | 45.5 | 33.9 | 8.15 | 31.9 | 3.84 | 42.7 | 23.2 | 7.08 | 17.6 | 17.6 | 29.4 | 24.5 | 4.11 | 3.53 |
| Cc1ccc(/C=C/C(=O)c2cc(CN(C)C)c(O)c(CN(C)C)c2)cc1 | > 100 | 86.7 | 25.2 | 35.6 | 27.2 | 57.2 | > 100 | 78.9 | 48.3 | – | > 100 | 58 | 27.4 | 70.8 | 31.7 |
| O=C(/C=C/c1ccc(O)c(O)c1O)OCCc1ccccc1 | > 100 | > 100 | 46.4 | > 100 | 47.3 | 53.8 | 48.7 | – | 52.6 | > 100 | > 100 | 80.6 | > 100 | > 100 | 54.9 |
| O=C1NC(N2CCCC(CO)C2)=N/C1=C\c1ccc(Cl)cc1 (centres undefined) | > 100 | > 100 | > 100 | > 100 | > 100 | > 100 | > 100 | > 100 | > 100 | > 100 | > 100 | > 100 | > 100 | > 100 | > 100 |
| C=CCNC1=C2C[C@@H](C)C[C@@H](OC)[C@H](OC(=O)CN)[C@H](C)/C=C(\C)[C@@H](OC(N)=O)[C@H](OC)/C=C\C=C(/C)C(=O)NC(=CC1=O)C2=O | 21.7 | 80.1 | 9.87 | 21.8 | 15.6 | > 36.1 | 21.3 | 18.3 | > 52.3 | 18.7 | 14.2 | 29.1 | 15.7 | 8.71 | 18.8 |
| COc1cc(N(CCC#N)CCC#N)ccc1/C(N=Nc1ccccc1)=N/NC(=O)c1cc(Br)ccc1O | 69.2 | > 100 | > 100 | > 100 | 62.6 | 38.3 | 49.8 | > 100 | 44.6 | 85.1 | > 100 | > 100 | 62.8 | 68.6 | 67.9 |

| SMILES | TGI [1] [µM] | TGI [2] [µM] | TGI [3] [µM] | TGI [4] [µM] | TGI [5] [µM] | TGI [6] [µM] | TGI [7] [µM] | TGI [8] [µM] | TGI [9] [µM] | TGI [10] [µM] | TGI [11] [µM] | TGI [12] [µM] | TGI [13] [µM] | TGI [14] [µM] | TGI [15] [µM] |
| --- | --- | --- | --- | --- | --- | --- | --- | --- | --- | --- | --- | --- | --- | --- | --- |
| COc1ccc(C2SC(C)C(=O)N2c2nc(-c3nc(-c4ccc(Cl)cc4)cs3)cs2)cc1 (centres undefined) | > 100 | > 100 | > 100 | > 100 | > 100 | > 100 | > 100 | > 100 | > 100 | – | > 100 | > 100 | > 100 | > 100 | > 100 |
| O=C(c1ccccc1)c1sc2c(=O)c(C(=O)c3ccccc3)c(C(=O)c3ccccc3)sc2c(=O)c1C(=O)c1ccccc1 | > 100 | > 100 | > 100 | > 100 | > 100 | > 100 | > 100 | > 100 | – | > 100 | > 100 | > 100 | > 100 | > 100 | 38.6 |
| Cc1ccc(S(=O)(=O)N2CCCC2C(=O)O[C@H]2CC[C@H]3CC=C[C@H]32)cc1 (some centres undefined) | > 100 | > 100 | > 100 | > 100 | > 100 | 33.4 | > 100 | > 100 | 77.7 | – | – | > 100 | 67.4 | – | – |
| Cc1c(C)c2c(c(N)c1C#N)C(=O)N(CCN1CCNCC1)C2=O | > 100 | > 100 | > 100 | 73.1 | > 100 | > 100 | – | > 100 | > 100 | > 100 | > 100 | > 100 | > 100 | > 100 | 97.3 |
| CC(=O)OC1CC[C@]2(C)C3CC[C@@]4(C)C(CCC4[C@H](C)CCCC(C)C)[C@@H]3CCC2(Br)C1 (some centres undefined) | > 50 | 30.4 | > 50 | 23.2 | 38 | 28 | 36.5 | 26.5 | – | – | 26.5 | > 50 | > 50 | > 50 | 29.1 |
| NC(N)=NCCCC(NC(=O)OCCCCCCn1ccc(N)nc1=O)C(=O)O (centres undefined) | > 100 | > 100 | > 100 | – | > 100 | > 100 | > 100 | – | > 100 | > 100 | > 100 | > 100 | > 100 | > 100 | – |
| CCS(=O)(=O)CCn1cnc2c1c(=O)n(C)c(=O)n2C | > 100 | > 100 | > 100 | – | > 100 | > 100 | > 100 | > 100 | – | > 100 | > 100 | > 100 | > 100 | > 100 | > 100 |
| NNc1[nH]c(=S)[nH]c1C(N)=O | > 100 | > 100 | > 100 | > 100 | > 100 | > 100 | – | > 100 | > 100 | > 100 | > 100 | > 100 | > 100 | – | > 100 |
| C=C(Cl)C(=C)CCC(Cl)C(C)C (centres undefined) | > 100 | > 100 | > 100 | > 100 | > 100 | > 100 | > 100 | – | > 100 | > 100 | > 100 | > 100 | > 100 | > 100 | > 100 |
| Cn1c2c(c3ccccc31)CC(=S)N1CCCC(CC2O)C1 (centres undefined) | – | > 100 | > 100 | > 100 | > 100 | – | > 100 | > 100 | > 100 | > 100 | > 100 | > 100 | > 100 | > 100 | > 100 |
| Cc1c(C)c(S(=O)(=O)N(CCCN)OCCCN)c(C)c2c1OC(C)(C)C2 | 31.3 | 40.3 | 38.9 | 42.1 | 33.3 | 42.7 | > 100 | > 100 | > 100 | 26.7 | > 100 | 38.3 | 89.3 | – | 30.6 |
| NC(=O)NC(=O)c1cccc(NC(=O)CBr)c1 | 6.8 | < 0.0505 | 14.4 | 0.746 | 0.951 | – | 1.54 | – | 0.306 | 1.59 | 0.281 | 0.0582 | 0.623 | 1.75 | < 0.01 |
| O=C(CCN1CCOCC1)Nc1ccc2sc3ccccc3c(=O)c2n1 | > 100 | > 100 | > 100 | 85.2 | > 100 | – | > 100 | > 100 | > 100 | > 100 | > 100 | > 100 | > 100 | > 100 | 45.9 |
| O=C(c1cccc(C(=O)c2ccc3c4c(cccc24)C(=O)N(c2ccccc2)C3=O)c1)c1ccc2c3c(cccc13)C(=O)N(c1ccccc1)C2=O | > 100 | > 100 | > 100 | > 100 | > 100 | > 100 | > 100 | > 100 | > 100 | – | > 100 | > 100 | > 100 | > 100 | > 100 |
| Clc1nc2n(c1/C=C/c1cccs1)CCS2 | > 100 | > 100 | > 100 | > 100 | 48.8 | 35.2 | > 100 | > 100 | 48.7 | > 100 | > 100 | > 100 | > 100 | – | > 100 |
| NCCN1CC2CCC(CC2)C1 | > 10 | > 10 | > 10 | > 10 | > 10 | > 10 | > 10 | > 10 | > 10 | > 10 | > 10 | > 10 | > 10 | – | > 10 |

Source: PubChem BioAssay (NCI)
